Measurements: patent US20180185302A1, “METHODS FOR DOWNREGULATING APOBEC3B” (Regents of the University of Minnesota, priority 2015, published 2018)
“Also recorded” adds a separate entry of the source.

How the values were obtained:
Type in all cases: cell-based, human
[1] = tested on: APOBEC3B; assay: endogenous APOBEC3B mRNA in cancer cell lines treated with AEB071 (RT-qPCR); settings: 10 μM, 48 hours
Experimental: FIG. 4. The PKC-NFκB pathway drives endogenous APOBEC3B expression in cancer cells. (A) APOBEC3B mRNA levels in representative breast, ovarian, and head/neck cancer cell lines. mRNA expression is reported as the mean of three independent RT-qPCR reactions normalized to TBP (error bars report SD from triplicate assays). (B) Representative PKC inhibitor treated cancer cell line experiment. Each line was treated with AEB071 (10 μM) or vehicle control for 48 hours prior to analysis. The histogram reports APOBEC3B mRNA levels normalized to the vehicle treated control for each line.
Four breast cancer cell lines, four ovarian cancer cell lines, four bladder cancer cell lines, and four head/neck cancer cell lines were analyzed to determine whether the constitutively high levels of endogenous APOBEC3B observed in many human cancer cell lines occurs through the PKC pathway. The selected cell lines expressed a 10-fold range of endogenous APOBEC3B mRNA levels (FIG. 4A).
(§1) Each line was treated for 48 hours with 10 μM AEB071, and then APOBEC3B mRNA and protein levels were quantified by RT-qPCR and immunoblotting. […] This is important since higher concentrations of AEB071 are known to cause cell cycle perturbations and apoptosis in certain cell types.

[2] = tested on: cancer cell lines; assay: cell cycle and cell viability of cancer cell lines treated with AEB071; settings: 10 μM, 48 hours, data not shown
[3] = tested on: APOBEC3B; assay: endogenous APOBEC3B protein in cancer cell lines treated with AEB071 (immunoblot); settings: 10 μM, 48 hours
Experimental: as §1
(§2) The development and validation of the rabbit monoclonal antibody (mAb) against APOBEC3B is as described elsewhere (U.S. Provisional Patent Application No. 62/186,109, filed Jun. 29, 2015). The mAb used (referred to as 5210-87-13) effectively binds endogenous APOBEC3B in a variety of assays. The anti-tubulin antibody was obtained from Covance Inc., Princeton, N.J.

[4] = tested on: APOBEC3B; assay: inhibitor pretreatment before PMA-induced APOBEC3B upregulation in MCF10A cells (RT-qPCR)
Experimental: PMA is a well-known agonist of PKC, but it also affects other cellular processes. To determine whether APOBEC3B induction by PMA occurs through PKC signal transduction or an alternative mechanism, we leveraged a panel of existing PKC inhibitors that each vary with respect to class selectivity. MCF10A cells were pre-treated for 30 minutes with varying concentrations of the pan-PKC inhibitor Gö6983 (Gschwendt et al., FEBS Lett. 392:77-80, 1996) and then treated for six hours with PMA (25 ng/mL). […] As additional controls, MCF10A cells were pretreated in parallel with the phosphoinositol 3 kinase (PI3K) inhibitor, LY294002, and the mitogen-activated protein kinase kinase (MEK) inhibitor, U0126, prior to PMA induction (FIGS. 2B and 2C).
(§3) For induction experiments, 2.5×10^5 cells were plated in a 6-well plate 1 day prior to drug treatment. PMA was then added to the media and incubated at 37° C. with 5% CO2 for six hours unless otherwise indicated. Cells were harvested, RNA was extracted, and RT-qPCR was performed as previously reported (Refsland et al. 2010, Nucleic Acids Res 38:4274-4284). For experiments utilizing inhibitors, cells were pretreated with inhibitors 30 minutes prior to PMA induction (25 ng/mL). PMA (Thermo Fisher Scientific, Inc., Waltham, Mass.), cyclohexamide (Acros Organics, Thermo Fisher Scientific, Inc., Waltham, Mass.), Gö6983 (Cayman Chemical co., Ann Arbor, Mich.), LY294002 (EMD Chemicals, Merck KGaA, Darmstadt, Germany), U0126 (EMD Chemicals, Merck KGaA, Darmstadt, Germany), AEB071 (Medchemexpress, Monmouth Junction, N.J.), Gö6976 (Enzo Life Sciences, Inc., Farmingdale, N.Y.), BAY 11-7082 (R&D Systems, INc., Minneapolis, Minn.), and MG132 (Thermo Fisher Scientific, Inc., Waltham, Mass.) were stored as recommended. NIKi/Compound 31 was synthesized as described (Li et al., 2013, Bioorganic & Medicinal Chemistry Letters 23:1238-1244).

[5] = tested on: RELA, NKB1, RELB and NFKB2; assay: RNA-seq of NFκB subunit mRNA in MCF10A cells treated with PMA; settings: PMA vs vehicle
Experimental: Canonical signaling is known to require IKKβ, whereas non-canonical NFκB signaling is strictly dependent on IKKα-catalyzed phosphorylation of p100. To distinguish between these pathways, MCF10A cells were pretreated with a titration of TPCA-1 concentrations spanning the IC50 values of both proteins, and then PMA was used to induce APOBEC3B upregulation. […] As an additional control, TNFα, which is regulated by the canonical pathway, was analyzed.
(§4) Two sets of MCF10A cells in duplicate were treated every eight hours with media supplemented with PMA or DMSO for 48 hours. At 48 hours, RNA was extracted using an RNeasy Mini Kit (Qiagen, Hilden, Germany). Total RNA was submitted to the University of Minnesota Genomics Center for sequencing on the Illumina HiSeq 2000 platform. Raw reads were analyzed using both DESeq2 (Love et al., 2014, Genome Biol. 15:550) and the Tuxedo suite (Trapnell et al., 2012, Nat Protoc.7:562-578) to identify changes in mRNA expression in PMA treated versus untreated cells.

[6] = tested on: APOBEC family members; assay: mRNA levels of other APOBEC family members after PMA (RT-qPCR); settings: MCF10A cells, six hours
Experimental: (§5) A panel of immortalized normal human epithelial cells lines and breast cancer cell lines was treated with PMA or equal amounts of DMSO as a negative control, and previously validated reverse transcription quantitative PCR (RT-qPCR) assays were used to measure mRNA levels of all eleven human APOBEC family members. APOBEC3B mRNA was induced specifically by PMA treatment of several lines including the immortalized normal breast epithelial cell line MCF10A (FIG. 1A and FIG. 6). Under standard cell culture conditions, MCF10A expresses low levels of APOBEC3B and APOBEC3F, even lower levels of APOBEC3G and APOBEC3H, high levels of APOBEC3C, and undetectable levels of all other APOBEC family members.
For induction experiments, 2.5×10^5 cells were plated in a 6-well plate 1 day prior to drug treatment. PMA was then added to the media and incubated at 37° C. with 5% CO2 for six hours unless otherwise indicated. Cells were harvested, RNA was extracted, and RT-qPCR was performed as previously reported (Refsland et al. 2010, Nucleic Acids Res 38:4274-4284). For experiments utilizing inhibitors, cells were pretreated with inhibitors 30 minutes prior to PMA induction (25 ng/mL). […]

[7] = tested on: APOBEC3B; assay: APOBEC3B protein levels by immunoblotting after PMA; settings: MCF10A cells
Experimental: (§6) APOBEC3B was induced with as little as 1 ng/mL PMA, and its induction was dose responsive and near maximal at 25 ng/mL PMA (FIG. 1B, histogram). APOBEC3B mRNA levels correlated with a rise in steady-state protein levels as measured by immunoblotting with a rabbit anti-APOBEC3B monoclonal antibody (described in U.S. Provisional Patent Application No. 62/186,109. filed Jun. 29, 2015) and with enzymatic activity as measured by a gel-based single-stranded DNA cytosine deamination assay (FIG. 1B). […] APOBEC3B protein and activity levels lagged shortly behind mRNA levels and persisted through the duration of the time course (FIG. 1C, immunoblot and polyacrylamide gel). APOBEC3B upregulation may be a direct result of signal transduction as the kinetics of upregulation were not affected by simultaneously treating cells with the protein translation inhibitor cyclohexamide (FIG. 1D).
as §2

[8] = tested on: APOBEC3B promoter region; assay: chromatin immunoprecipitation (ChIP) at the APOBEC3B promoter after PMA; settings: MCF10A cells, PMA 25 ng/mL two hours, ChIP-qPCR
Experimental: We next performed a series of chromatin immunoprecipitation (ChIP) experiments to determine whether the canonical or noncanonical NFκB pathway is responsible for upregulating APOBEC3B. Primer sets were designed for each of the predicted NFκB binding sites near the APOBEC3B transcriptional start site, as well as a control set in the promoter region of NFKIB (FIG. 3E). ChIP was performed for RELA, RELB, RNA POL II (positive control), and isotype matched IgG (negative control) RELA, RELB, and RNA POL II were all bound to the NFKIB promoter following PMA treatment (FIG. 3F and FIG. 3G). In addition, we found RNA POL II strongly bound to the APOBEC3B gene near the transcriptional start site (FIG. 3F and FIG. 3G). We also found RELB bound both near the transcriptional start site and at sites 4 and 5, which are located in intron 2 and too close together to be distinguished by this procedure. Binding also may occur at lower levels at site 3 in intron 1, but the IgG signal was too high to distinguish background from actual binding. These ChIP data strongly implicate the noncanonical NFκB pathway, specifically RELB (and not RELA), in directly inducing APOBEC3B transcription in response to PMA activation of PKC.
MCF10A cells were treated with either DMSO or 25 ng/mL PMA for two hours. […]

[9] = tested on: APOBEC3B; assay: PMA induction of APOBEC3B mRNA in MCF10A cells (RT-qPCR)
Experimental: as §5, §6, §3

[10] = tested on: APOBEC3B; assay: single-stranded DNA cytosine deaminase activity of whole cell extracts after PMA; settings: MCF10A cell extracts
Experimental: as §6
Deaminase activity assays were performed as previously reported (Vieira et al., 2014, mBio 5(6):e02234-14). In short, 4 pmol of a fluorescently labeled oligo with a single target cytosine (5 -[…]-fluorescein, SEQ ID NO:2) was treated with cell extract containing 0.025 U/rxn UDG (New England BioLabs, Inc., Ipswich, Mass.), UDG buffer, and 1.75 U/rxn RNase A (Qiagen, Hilden, Germany) for two hours. […] Gels were scanned using a FujiFilm Image Reader FLA-7000.

[11] = tested on: PKCα (PRKCA); assay: RNA-seq of PKC isoform mRNA in MCF10A cells treated with PMA; settings: PMA vs vehicle
From the text: PKCα mRNA levels were unchanged by PMA treatment, consistent with a mechanism by which PMA signals through pre-existing PKCα to ultimately stimulate APOBEC3B transcription (FIG. 2G). PKCα expression was depleted using three independent shRNA-encoding lentiviral constructs. […] Immunoblots confirmed PKCα knockdown and proportional reductions in APOBEC3B (FIG. 21). Altogether, the pharmacologic and genetic approaches provide a strong case for PKCα as the predominant PKC isoform driving PMA-mediated upregulation of APOBEC3B.
as §4

## CN1CCN(c2nc(C3=C(c4c[nH]c5ccccc45)C(=O)NC3=O)c3ccccc3n2)CC1 [AEB071, sotrastaurin]
[1]; 16 breast, ovarian, bladder, head/neck cancer cell lines
  cell lines in which APOBEC3B mRNA levels were reduced by more than half: 7/16
[1]; HCC1806 breast cancer cell line
  APOBEC3B mRNA levels: reduced by more than half
[1]; JSQ3 head/neck line
  APOBEC3B mRNA levels: reduced by more than half
[1]; MDA-MB-453 breast cancer cell line
  APOBEC3B mRNA levels: reduced by more than half
[1]; MDA-MB-468 breast cancer cell line
  APOBEC3B mRNA levels: reduced by more than half
[1]; OVCAR5 ovarian cancer cell line
  APOBEC3B mRNA levels: reduced by more than half
[1]; SQ-20B head/neck line
  APOBEC3B mRNA levels: reduced by more than half
[1]; TR146 head/neck line
  APOBEC3B mRNA levels: reduced by more than half
[2]
  effects on the cell cycle or cell viability: No effects on the cell cycle or cell viability
[3]
  changes of APOBEC3B protein levels: largely mirrored the mRNA results
[4]
  potency relative to Gö6983, BIM-1, or Gö6983 in suppressing PMA-induced APOBEC3B: approximately 10 fold
[4]; 30-minute pretreatment with inhibitor, then PMA 25 ng/mL six hours
  suppression of PMA-induced APOBEC3B mRNA induction: inhibited; also recorded: clear dose dependent response
[4]; pretreatment, PMA induced
  concentration that caused complete suppression of APOBEC3B expression: 500 nM

## CCCCCCCCCCCCCC(=O)O[C@@H]1[C@@H](C)[C@@]2(O)[C@@H](C=C(CO)C[C@]3(O)C(=O)C(C)=C[C@@H]23)[C@@H]2C(C)(C)[C@]12OC(C)=O [PMA]
[5]
  mRNA levels of NFκB components RELA, NKB1, RELB, NFKB2: unaffected
[6]
  changes in the expression levels of other APOBEC family members: no detectable changes
[7]
  APOBEC3B protein levels: dose-responsive increases
[8]
  recruitment of RELB and p105/p52 to the APOBEC3B promoter region: specifically and robustly recruited
[9]; PMA 25 ng/ml
  time after PMA treatment at which maximal APOBEC3B mRNA levels were observed: by three hours post-treatment
  time after PMA treatment at which significant APOBEC3B mRNA induction was detected: 30 min
[9]; six hours
  PMA concentration at which APOBEC3B induction was near maximal: 25 ng/mL
  lowest PMA concentration that induced APOBEC3B: 1 ng/mL
[10]
  APOBEC3B activity levels (DNA cytosine deaminase): dose-responsive increases
[11]
  PKCα mRNA levels: unchanged
